In patent publication EP4813463A2, “TYK2 INHIBITORS AND COMPOSITIONS AND METHODS THEREOF” (Lynk Pharmaceuticals Co. Ltd., priority 2023, dated 2024):

Legend:
IFNa pSTAT1 [1] = assay: Phosphorylation of STAT1 inhibition in HMC3 cells with HTRF assay; assay type: cell-based; conditions: Homo sapiens, HMC3 microglia cells, 50ng/mL hINFα 1 hour, read-out: HTRF_HMC3 IC 50 (IFNa pSTAT1)
Experimental: Seeding HMC3 cells into 96-well plate and incubate overnight. Pre-stimulation with recombinant human IFNα (Sino biological, H08Y), treat cells with compound with different concentration for 1hr. After compound treatment, stimulate cells with 50ng/mL hINFα for another 1 hour (for CCF-STTG1 cells IFNα induction time is 30 mins). After compound treatment and cytokine stimulation, dump old medium and lyse cells with supplemented lysis buffer provided by the HTRF kit (Revvity, 63ADK026PEG) for 30 min at room temperature under shaking. After homogenization by pipetting up and down, transfer 16 µL of cell lysate from the 96-well cell-culture plate to a small volume white 384-well plate, and then add 4 µL of pre-mixed two ready-to-use antibody working solution into each wells. Cover the plate with a plate sealer and incubate it overnight at room temperature. Read the fluorescence emission at two different wavelengths (665nm and 620nm) on microplate reader (Molecular Device, SpectraMax i3X). Collect data and analyzed with GraphPad Prism.

Caco-2 cell permeability = assay type: in vitro ADME; conditions: human, Caco-2, 10.0 µM, no p-gp inhibitor
Experimental: Compounds permeability was evaluated using Caco-2 cell lines. HBSS buffer was used as transfer buffer. Appropriate dosing and receiver solutions were applied to the donor and receiver chambers to initiate the transport assay in apical to basolateral (A to B) or basolateral to apical (B to A) directions. Compounds were tested at 10.0 µM in the absence of p-gp inhibitor bidirectionally in duplicates. After incubation at 37°C for 90 mins, donor and receiver samples were analyzed by LC-MS/MS. The intestinal absorption potential was assessed using Papp value and efflux ratio.

TYK2 = target: T1, TYK2 (Homo sapiens, UniProt P29597); assay: TYK2 kinase activity, microfluidic assay (Caliper EZ Reader II, FAM labeled peptide substrate); assay type: biochemical; conditions: TYK2 20 nM, 1 mM ATP
T1 construct: purchased Carna Biosciences
T1 sequence (P29597 897-1176 limits assumed): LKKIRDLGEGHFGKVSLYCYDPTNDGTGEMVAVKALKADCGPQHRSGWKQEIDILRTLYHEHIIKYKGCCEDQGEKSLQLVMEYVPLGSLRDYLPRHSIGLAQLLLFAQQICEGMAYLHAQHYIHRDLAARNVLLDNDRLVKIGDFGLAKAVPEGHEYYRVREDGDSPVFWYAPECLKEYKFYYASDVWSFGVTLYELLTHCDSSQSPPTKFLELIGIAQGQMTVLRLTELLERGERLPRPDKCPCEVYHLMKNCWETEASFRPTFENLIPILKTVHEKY
Experimental: (§1) Testing for JAK1, JAK2 and TYK2 Kinase Activities
(§2) JAK activity was determined in the reaction buffer 50 mM HEPES, 0.01% Brij35, 10 mM MgCl2, 2 mM DTT by a microfluidic assay. The phosphorylation of a FAM labeled peptide substrate was monitored in the Caliper EZ Reader II (Perkin Elmer). The assay condition for each batch of enzyme (Carna Biosciences) was optimized to obtain 10% conversion rate of peptide substrate.
(§3) The test compounds were dissolved in DMSO to a stock concentration of 10 mM. Three-fold serially diluted compounds with top concentration of 5 µM were pre-incubated with JAK1, JAK2 or TYK2 for 10 min at ambient temperature. The final DMSO concentration of assay mixture was 1%. […] The reaction was stopped by adding 50 mM EDTA.
(§4) And the well without compound but with equivalent DMSO was defined as no inhibition. The percent inhibition was calculated by the following formula: % Inhibition = (Conversion%_max−Conversion%_sample)/(Conversion%_max−Conversion%_min) × 100 [formula] wherein • Conversion%_ max = the conversion rate in the positive well without addition of compound • Conversion%_ sample = the conversion rate of test compounds • Conversion%_ min = the conversion rate in the well without addition of enzyme
(§5) The dose-response (percent inhibition) curve was plotted and IC50 values were determined by GraphPad software. The IC50 values of tested compounds were list in Table 3. Table 3. JAK1, JAK2 and TYK2 IC50 Values of Illustrative Compounds

JAK1 = target: T2, JAK1 (Homo sapiens, UniProt P23458); assay: JAK1 kinase activity, microfluidic assay (Caliper EZ Reader II, FAM labeled peptide substrate); assay type: biochemical; conditions: JAK1 10 nM, 1 mM ATP
T2 construct: purchased Carna Biosciences
T2 sequence (P23458 875-1153 limits assumed): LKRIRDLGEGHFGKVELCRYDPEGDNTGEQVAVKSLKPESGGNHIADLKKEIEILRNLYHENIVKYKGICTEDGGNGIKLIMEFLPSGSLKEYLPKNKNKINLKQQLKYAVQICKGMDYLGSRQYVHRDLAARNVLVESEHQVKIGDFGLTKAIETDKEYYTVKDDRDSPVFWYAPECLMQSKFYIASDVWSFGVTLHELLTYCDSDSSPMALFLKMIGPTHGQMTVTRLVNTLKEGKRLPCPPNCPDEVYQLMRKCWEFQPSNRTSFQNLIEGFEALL
Experimental: as §1, §2, §3, §4, §5

JAK2 = target: T3, JAK2 (Homo sapiens, UniProt O60674); assay: JAK2 kinase activity, microfluidic assay (Caliper EZ Reader II, FAM labeled peptide substrate); assay type: biochemical; conditions: JAK2 1.5 nM, 1 mM ATP
T3 construct: purchased Carna Biosciences
T3 sequence (O60674 849-1124 limits assumed): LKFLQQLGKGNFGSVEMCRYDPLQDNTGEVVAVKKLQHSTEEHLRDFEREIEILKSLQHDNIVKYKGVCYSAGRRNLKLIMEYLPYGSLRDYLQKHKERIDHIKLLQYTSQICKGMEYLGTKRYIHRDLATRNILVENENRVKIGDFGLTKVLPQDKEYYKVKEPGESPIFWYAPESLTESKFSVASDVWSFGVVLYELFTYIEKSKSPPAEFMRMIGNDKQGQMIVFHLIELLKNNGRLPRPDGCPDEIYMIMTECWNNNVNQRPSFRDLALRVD
Experimental: as §1, §2, §3, §4, §5

pSTAT1 = assay: Phosphorylation inhibition of STAT in human whole blood (IFN-alpha stimulated, flow cytometry); assay type: cell-based; conditions: T-cell, 20 min, IFN-alpha stimulation 20 mins, CD3 T cells, read-out: pSTAT1 inhibition in hWB (IC50)
How it was run: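 Fresh human whole blood stimulated 20 min with human universal type I IFN-alpha, then fixed, permeabilised and stained for CD3 and pSTAT1 (Y701). pSTAT1 in T cells read by flow cytometry; IC50 from 4-parameter logistic fit.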

IFNa pSTAT1 [2] = assay: Phosphorylation of STAT1 inhibition in CCF-STTG1 cells by Jess; assay type: cell-based; conditions: Homo sapiens, 0.5 h; CCF-STTG1 astrocyte cells, IFNα induction 30 mins, Jess western; read-out: Jess_CCF-STTG1 IC50 (IFNa pSTAT1)
Experimental: Seeding HMC3 cells into 12-well plate and incubate overnight. Pre-stimulation with recombinant human IFNα (Sino biological, H08Y), treat cells with compound with different concentration for 1hr. After compound treatment, stimulate HMC3 cells with 50ng/mL hINFα for another 1 hour (for CCF-STTG1 cells IFNα induction time is 30 mins). And then wash cells with DPBS once gently and lyse cells with pre-cooled RIPA buffer (Sigma, R0278-500ML) for 30min on ice to harvest cells. Centrifuge cell lysate for 20 mins at 12000rpm with freezer centrifuge (Thermo Scientific, Heraeus Fresco 21) to extract protein. Prepare samples with Jess Simple Wes kit (SM-WO04) and then run western blot on Jess simple western system (Protein simple, JS-4631). Collect data and analyzed with GraphPad Prism.

[3] = read-out: Efflux Ratio: Papp(B-A)/Papp(A-B)

| SMILES | IC50 (IFNa pSTAT1 [1]) [pM] | Papp A→B at 1.5 h, 10 µM (Caco-2 cell permeability; 90 mins, A to B) [×10⁻⁶ cm/s] | Papp B→A at 1.5 h, 10 µM (Caco-2 cell permeability; 90 mins, B to A) [×10⁻⁶ cm/s] | efflux ratio at 1.5 h, 10 µM (Caco-2 cell permeability; [3]) | IC50 (TYK2) [µM] | IC50 (JAK1) [µM] | IC50 (JAK2) [µM] | IC50 (pSTAT1) [µM] | IC50 (IFNa pSTAT1 [2]) [µM] | Papp A→B at 90 min, 10 µM (Caco-2 cell permeability; 90 mins, A to B) [×10⁻⁶ cm/s] | Papp B→A at 90 min, 10 µM (Caco-2 cell permeability; 90 mins, B to A) [×10⁻⁶ cm/s] | efflux ratio at 90 min, 10 µM (Caco-2 cell permeability; [3]) |
| --- | --- | --- | --- | --- | --- | --- | --- | --- | --- | --- | --- | --- |
| COC(=O)c1cnc(NC(=O)[C@@H]2C[C@@H]2F)cc1Nc1nn(C)c2ccc(C(O)C(F)(F)F)c(OC)c12 (single isomer, unassigned) [Example 122A, Methyl 6-((1S,2S)-2-fluorocyclopropane-1-carboxamido)-4-((4-methoxy-1-methyl-5-((S*)-2,2,2-trifluoro-1-hydroxyethyl)-1H-indazol-3-yl)amino) nicotinate] | < 61 | 27.4 | 45.3 | 1.65 | – | – | – | – | – | – | – | – |
| [2H]C([2H])([2H])NC(=O)c1cnc(NC(=O)C2CC2)cc1Nc1cnn2ccc([C@H](O)C(F)(F)F)c(OC)c12 [Example 7A, (S)-6-(cyclopropanecarboxamido)-4-((4-methoxy-5-(2,2,2-trifluoro-1-hydroxyethyl)pyrazolo[1,5-a]pyridin-3-yl)amino)-N-(methyl-d3)nicotinamide] | – | – | – | – | > 20 | > 20 | > 20 | 0.0312 | 0.00682 | – | – | – |
| [2H]C([2H])([2H])NC(=O)c1cnc(NC(=O)C2CC2)cc1Nc1cnn2ccc([C@@H](O)C(F)(F)F)c(OC)c12 [Example 7B, (R)-6-(cyclopropanecarboxamido)-4-((4-methoxy-5-(2,2,2-trifluoro-1-hydroxyethyl)pyrazolo[1,5-a]pyridin-3-yl)amino)-N-(methyl-d3)nicotinamide] | – | – | – | – | > 20 | > 20 | > 20 | 1.01 | – | – | – | – |
| [2H]C([2H])([2H])NC(=O)c1cnc(Nc2ccn(C)n2)cc1Nc1cnn2ccc([C@H](O)C(F)(F)F)c(OC)c12 [Example 21, (S)-4-((4-methoxy-5-(2,2,2-trifluoro-1-hydroxyethyl)pyrazolo[1,5-a]pyridin-3-yl)amino)-N-(methyl-d3)-6-((1-methyl-1H-pyrazol-3-yl)amino)nicotinamide] | – | – | – | – | > 20 | > 20 | > 20 | 0.0227 | – | 0.71 | 47.4 | 67 |
| [2H]C([2H])([2H])NC(=O)c1cnc(Nc2cc(C)nc(C)n2)cc1Nc1cnn2ccc([C@H](O)C(F)(F)F)c(OC)c12 [Example 25, (S)-6-((2,6-Dimethylpyrimidin-4-yl)amino)-4-((4-methoxy-5-(2,2,2-trifluoro-1-hydroxyethyl)pyrazolo[1,5-a]pyridin-3-yl)amino)-N-(methyl-d3)nicotinamide] | – | – | – | – | > 20 | > 20 | > 20 | 0.0308 | – | 2.57 | 62.3 | 24.2 |
| [2H]C([2H])([2H])NC(=O)c1cnc(NC(=O)C2CC2)cc1Nc1cnn2ccc([C@H](OC)C(F)(F)F)c(OC)c12 [Example 27, (S)-6-(cyclopropanecarboxamido)-4-((4-methoxy-5-(2,2,2-trifluoro-1-methoxyethyl)pyrazolo[1,5-a]pyridin-3-yl)amino)-N-(methyl-d3)nicotinamide] | – | – | – | – | > 20 | > 20 | > 20 | 0.0512 | – | – | – | – |
| [2H]C([2H])([2H])NC(=O)c1nnc(NC(=O)C2CC2)cc1Nc1cnn2ccc([C@H](O)C(F)(F)F)c(OC)c12 [Example 30, (S)-6-(cyclopropanecarboxamido)-4-((4-methoxy-5-(2,2,2-trifluoro-1-hydroxyethyl)pyrazolo[1,5-a]pyridin-3-yl)amino)-N-(methyl-d3)pyridazine-3-carboxamide] | – | – | – | – | > 20 | > 20 | > 20 | 0.0522 | – | – | – | – |
| COC(=O)c1cnc(NC(=O)C2CC2)cc1Nc1nn(C)c2ccc([C@H](OC)C(F)(F)F)c(OC)c12 [Example 45B, Methyl (S)-6-(cyclopropanecarboxamido)-4-((4-methoxy-1-methyl-5-(2,2,2-trifluoro-1-methoxyethyl)-1H-indazol-3-yl)amino)nicotinate] | – | – | – | – | – | – | – | – | 0.0035 | 7.27 | 5.65 | 0.78 |
| COC(=O)c1cnc(NC(=O)C2CC2)cc1Nc1nn(C)c2ccc([C@H](O)C(F)(F)F)c(OC)c12 [Example 48A, Methyl (S)-6-(cyclopropanecarboxamido)-4-((4-methoxy-1-methyl-5-(2,2,2-trifluoro-1-hydroxyethyl)-1H-indazol-3-yl)amino)nicotinate] | < 61 | – | – | – | > 5 | > 5 | > 5 | 0.0291 | 0.00074 | 29.9 | 29 | 0.97 |
| [2H]C([2H])([2H])NC(=O)c1cnc(NC(=O)C2CC2)cc1Nc1nn(C)c2ccc([C@H](O)C(F)(F)F)c(OC)c12 [Example 49A, (S)-6-(cyclopropanecarboxamido)-4-((4-methoxy-1-methyl-5-(2,2,2-trifluoro-1-hydroxyethyl)-1H-indazol-3-yl)amino)-N-(methyl-d3)nicotinamide] | < 61 | – | – | – | > 5 | > 5 | > 10 | 0.0105 | – | 1.32 | 66.6 | 50.3 |
| [2H]C([2H])([2H])O[C@@H](c1ccc2c(c(Nc3cc(NC(=O)C4CC4)ncc3C(=O)OC)nn2C)c1OC)C(F)(F)F [Example 50B, Methyl (S)-6-(cyclopropanecarboxamido)-4-((4-methoxy-1-methyl-5-(2,2,2-trifluoro-1-(methoxy-d3)ethyl)-1H-indazol-3-yl)amino)nicotinate] | – | – | – | – | > 5 | > 5 | > 5 | 0.0565 | 0.00373 | – | – | – |
| [2H]C([2H])([2H])NC(=O)c1cnc(NC(=O)C2CC2)cc1Nc1nn(C)c2ccc([C@H](OC([2H])([2H])[2H])C(F)(F)F)c(OC)c12 [Example 55A, (S)-6-(cyclopropanecarboxamido)-4-((4-methoxy-1-methyl-5-(2,2,2-trifluoro-1-(methoxy-d3)ethyl)-1H-indazol-3-yl)amino)-N-(methyl-d3)nicotinamide] | 192 | – | – | – | > 5 | > 5 | > 10 | 0.0248 | – | – | – | – |
